Results from patent US8309554B2 (priority 2008, dated 2012).
Read-outs that look alike come from different tables or passages of the source.

How the values were obtained:
H460 = assay: cells; format: cell-based; conditions: for IC50: Homo sapiens
HT29 = assay: cells; format: cell-based; conditions: for IC50: Homo sapiens, HT-29, 2 h
[1] = NCI-H460, read-out: 2 h Air H460 monolayer IC50
[2] = NCI-H460, read-out: 2 h N2 H460 monolayer IC50
[3] = NCI-H460, 2 h, read-out: 2 hr Air H460 IC50
[4] = NCI-H460, 2 h, read-out: 2 hr N2 H460 IC50

Compound | IC50 (H460; [1]) [µM] | IC50 (H460; [2]) [µM] | H460 HCR: Air/N2 (H460) | IC50 (H460; [3]) [µM] | IC50 (H460; [4]) [µM] | HT29 HCR: Air/N2 (HT29) | IC50 (HT29; read-out: 2 hr Air HT29 IC50) [µM] | IC50 (HT29; read-out: 2 hr N2 HT29 IC50) [µM]
CN(c1ccc(N(CCCl)CCCl)cc1)S(=O)(=O)C(C)(C)c1ccc([N+](=O)[O-])cc1 [TH-1124] | 289 | 243 | – | – | – | – | – | –
O=[N+]([O-])c1sccc1C(CCS(=O)(=O)Oc1ccccc1)S(=O)(=O)Oc1ccc(N(CCCl)CCCl)cc1 (centres unmarked) [TH-1292, 3-(4-(N,N-bis-(2-Chloroethyl)amino)phenoxysulfonyl-(2-phenoxysulfonylethyl))methyl-2-nitrothiophene] | – | – | 127.7 | 195 | 1.5 | 158 | 760 | 4.8
Cc1cc(OS(=O)(=O)C(C)(C)c2ccsc2[N+](=O)[O-])ccc1N(CCCl)CCCl [TH-1121] | 1.3 | 0.3 | – | – | – | – | – | –
COCC(=O)Nc1ccc(CC(c2ccsc2[N+](=O)[O-])S(=O)(=O)Oc2ccc(N(CCCl)CCCl)cc2)cn1 (centres unmarked) [TH-1477] | – | – | 43 | 13 | 0.3 | – | – | –
O=[N+]([O-])c1sccc1C(Cc1ccc(N2CCOCC2)nc1)S(=O)(=O)Oc1ccc(N(CCCl)CCCl)cc1 (centres unmarked) [TH-1426] | – | – | 950 | 190 | 0.2 | – | > 300 | > 300
CCc1nc([N+](=O)[O-])n(C)c1CS(=O)(=O)N(C)c1ccc(N(CCCl)CCCl)cc1 [TH-1145] | 78.2 | 3.8 | – | – | – | – | – | –
CN(C)S(=O)(=O)CCC(c1ccsc1[N+](=O)[O-])S(=O)(=O)Oc1ccc(N(CCCl)CCCl)cc1 (centres unmarked) [TH-1360] | – | – | ~70 | ~300 | 4.3 | – | > 1000 | > 1000
O=C(CO)Nc1ncccc1CC(c1ccsc1[N+](=O)[O-])S(=O)(=O)Oc1ccc(N(CCCl)CCCl)cc1 (centres unmarked) [TH-1384] | – | – | 30 | 64 | 2.1 | 16 | 275 | 17
Cc1cc(OS(=O)(=O)C(C)(C)c2ccc([N+](=O)[O-])cc2)ccc1N(CCBr)CCBr [TH-1116] | 1.1 | 0.6 | – | – | – | – | – | –
O=[N+]([O-])c1nccn1CS(=O)(=O)Nc1cc(F)c(N(CCCl)CCCl)c(F)c1 [TH-1133] | 11.3 | 5.9 | – | – | – | – | – | –
O=[N+]([O-])c1sccc1C(CCS(=O)(=O)c1ccccc1)S(=O)(=O)Oc1ccc(N(CCCl)CCCl)cc1 (centres unmarked) [TH-1278] | – | – | 205 | 61.4 | 0.3 | – | > 1000 | > 1000
O=[N+]([O-])c1sccc1C(COC1CCCCC1)S(=O)(=O)Oc1ccc(N(CCCl)CCCl)cc1 (centres unmarked) [TH-1521] | – | – | 180 | 234 | 1.3 | >3.2 | > 300 | 93
CN(c1ccc(N(CCBr)CCBr)cc1)S(=O)(=O)Cn1ccnc1[N+](=O)[O-] [TH-1141] | 0.5 | 0.1 | – | – | – | – | – | –
CC(c1ccc([N+](=O)[O-])cc1)S(=O)(=O)N(C)c1ccc(N(CCCl)CCCl)cc1 (centres unmarked) [TH-1122] | > 300 | > 300 | – | – | – | – | – | –
O=[N+]([O-])c1sccc1CS(=O)(=O)Oc1ccc(N(CCCl)CCCl)c(F)c1 [TH-1192, 3-((3-Fluoro-4-(N,N-bis-(2-chloroethyl)amino)phenoxy)sulfonyl)methyl-2-nitrothiophene] | – | – | 39 | 59.2 | 1.5 | 20 | 162 | 8
O=[N+]([O-])c1sccc1C(Cc1ccc2c(ccn2CCO)c1)S(=O)(=O)Oc1ccc(N(CCCl)CCCl)cc1 (centres unmarked) [TH-1140] | – | – | 114 | 114 | 1 | – | – | –
Cc1cc(CS(=O)(=O)N(C)c2ccc(N(CCCl)CCCl)cc2)c([N+](=O)[O-])s1 [TH-1125] | 148 | 69 | – | – | – | – | – | –
O=[N+]([O-])c1nccn1CS(=O)(=O)Nc1ccc(N(CCCl)CCCl)cc1 [TH-1105] | 7.6 | 4.2 | – | – | – | – | – | –
CN(CCO)c1ccc(CC(c2ccsc2[N+](=O)[O-])S(=O)(=O)Oc2ccc(N(CCCl)CCCl)cc2)cn1 (centres unmarked) [TH-1434] | – | – | 83 | 50 | 0.6 | – | – | –
CCN(CC)CC#CCC(c1ccsc1[N+](=O)[O-])S(=O)(=O)Oc1ccc(N(CCCl)CCCl)cc1 (centres unmarked) [TH-1545] | – | – | 51 | 102 | 2 | 12 | 60 | 5
Cc1cc(OS(=O)(=O)C(C)(C)n2ccnc2[N+](=O)[O-])ccc1N(CCCl)CCCl [TH-1134] | 0.2 | < 0.1 | – | – | – | – | – | –
CC(C)(C)OC(=O)NCC(=O)Nc1ccc(CC(c2ccsc2[N+](=O)[O-])S(=O)(=O)Oc2ccc(N(CCCl)CCCl)cc2)cn1 (centres unmarked) [TH-1351] | – | – | 49 | ~300 | 6.1 | – | – | –
CN(c1cc(F)c(N(CCCl)CCCl)c(F)c1)S(=O)(=O)Cn1ccnc1[N+](=O)[O-] [TH-1135] | 9.2 | 3.4 | – | – | – | – | – | –
C[C@H](O)C(=O)Nc1ccc(CC(c2ccsc2[N+](=O)[O-])S(=O)(=O)Oc2ccc(N(CCCl)CCCl)cc2)cc1 (some centres unmarked) [TH-1468] | – | – | 75 | 30 | 0.4 | – | – | –
Cc1cc(OS(=O)(=O)Cc2nc(C)n(C)c2[N+](=O)[O-])ccc1N(CCCl)CCCl [TH-1112] | 1.4 | 1.7 | – | – | – | – | – | –
O=[N+]([O-])c1sccc1C(Cc1ccc(N2CCC[C@H]2CO)nc1)S(=O)(=O)Oc1ccc(N(CCCl)CCCl)cc1 (some centres unmarked) [TH-1430] | – | – | 500 | 300 | 0.6 | – | – | –

Compound | IC50 (H460; [1]) [µM] | IC50 (H460; [2]) [µM] | H460 HCR: Air/N2 (H460) | IC50 (H460; [3]) [µM] | IC50 (H460; [4]) [µM] | HT29 HCR: Air/N2 (HT29) | IC50 (HT29; read-out: 2 hr Air HT29 IC50) [µM] | IC50 (HT29; read-out: 2 hr N2 HT29 IC50) [µM]
Cn1c(CN(c2ccc(N(CCCl)CCCl)cc2)S(=O)(=O)CCl)cnc1[N+](=O)[O-] [TH-1119] | > 300 | > 300 | – | – | – | – | – | –
O=[N+]([O-])c1sccc1C(Cc1ccc(NS(=O)(=O)C(F)(F)F)nc1)S(=O)(=O)Oc1ccc(N(CCCl)CCCl)cc1 (centres unmarked) [TH-1262] | – | – | 150 | 90 | 0.6 | – | – | –
Cc1cc(OS(=O)(=O)Cc2ncc([N+](=O)[O-])n2C)ccc1N(CCCl)CCCl [TH-1110] | 1.4 | 2.1 | – | – | – | – | – | –
Cc1cc(OS(=O)(=O)C(C)(C)c2ccc([N+](=O)[O-])cc2)ccc1N(CCCl)CCCl [TH-1115] | 13 | 3 | – | – | – | – | – | –
CN(c1cc(F)c(N(CCCl)CCCl)c(F)c1)S(=O)(=O)C(C)(C)n1ccnc1[N+](=O)[O-] [TH-1136] | 5.1 | 5 | – | – | – | – | – | –
CS(=O)(=O)Nc1ccc(CC(c2ccsc2[N+](=O)[O-])S(=O)(=O)Oc2ccc(N(CCCl)CCCl)cc2)cn1 (centres unmarked) [TH-1272] | – | – | 91 | 290 | 3.2 | – | – | –
CN(c1ccc(N(CCCl)CCCl)cc1)S(=O)(=O)Cc1ccsc1[N+](=O)[O-] [TH-1118] | 12.9 | 6.7 | – | – | – | – | – | –
CN(c1ccc(N(CCCl)CCCl)cc1)S(=O)(=O)Cc1nc(-c2ccccc2)c([N+](=O)[O-])n1C [TH-1129] | 6.9 | 3.6 | – | – | – | – | – | –
O=[N+]([O-])c1sccc1C(Cc1ccc2nn(CCO)nc2c1)S(=O)(=O)Oc1ccc(N(CCCl)CCCl)cc1 (centres unmarked) [TH-1458] | – | – | 60 | 30 | 0.5 | – | – | –
Cc1cc(OS(=O)(=O)Cc2ncn(C)c2[N+](=O)[O-])ccc1N(CCCl)CCCl [TH-1111] | 4.7 | 2.5 | – | – | – | – | – | –
Cn1c(CS(=O)(=O)Nc2ccc(N(CCCl)CCCl)cc2)cnc1[N+](=O)[O-] [TH-1104] | 7.4 | 6.1 | – | – | – | – | – | –
O=[N+]([O-])c1sccc1C(Cc1ccc(O[C@@H]2CCC[C@H]2O)nc1)S(=O)(=O)Oc1ccc(N(CCCl)CCCl)cc1 (some centres unmarked) [TH-1452] | – | – | 55 | 110 | 2 | – | – | –
CN(c1cc(F)c(N(CCCl)CCCl)c(F)c1)S(=O)(=O)Cc1cnc([N+](=O)[O-])n1C [TH-1138] | 34.2 | 13.5 | – | – | – | – | – | –
CN(c1ccc(N(CCCl)CCCl)cc1)S(=O)(=O)Cc1ccc([N+](=O)[O-])cc1 [TH-1123] | > 300 | > 300 | – | – | – | – | – | –
Cn1c(CN(c2ccc(N(CCCl)CCCl)cc2)S(=O)(=O)C(F)(F)F)cnc1[N+](=O)[O-] [TH-1128] | 267 | 294 | – | – | – | – | – | –
Cc1cc(OS(=O)(=O)Cn2ccnc2[N+](=O)[O-])ccc1N(CCCl)CCCl [TH-1106] | 0.9 | 0.2 | – | – | – | – | – | –
C[C@H](O)[C@H](C)Oc1ccc(CC(c2ccsc2[N+](=O)[O-])S(=O)(=O)Oc2ccc(N(CCCl)CCCl)cc2)cn1 (some centres unmarked) [TH-1486] | – | – | 36 | 36 | 1 | – | – | –
CN(c1ccc(N(CCCl)CCCl)cc1)S(=O)(=O)C(C)(C)c1nc(-c2ccccc2)c([N+](=O)[O-])n1C [TH-1130] | 122 | 65 | – | – | – | – | – | –
O=[N+]([O-])c1sccc1C(Cc1ccc(Cl)nc1)S(=O)(=O)Oc1ccc(N(CCCl)CCCl)cc1 (centres unmarked) [TH-1341] | – | – | 43 | 145 | 3.4 | – | – | –
Cc1cc(OS(=O)(=O)Cc2ccsc2[N+](=O)[O-])ccc1N(CCCl)CCCl [TH-1103] | 0.7 | 0.1 | – | – | – | – | – | –
Cc1ccc(S(=O)(=O)NCC(c2ccsc2[N+](=O)[O-])S(=O)(=O)Oc2ccc(N(CCCl)CCCl)cc2)cc1 (centres unmarked) [TH-1312] | – | – | 31 | 122 | 3.9 | – | – | –
Cn1c(CS(=O)(=O)Nc2cc(F)c(N(CCCl)CCCl)c(F)c2)cnc1[N+](=O)[O-] [TH-1137] | 20.4 | 8.3 | – | – | – | – | – | –
CN(c1ccc(N(CCCl)CCCl)cc1)S(=O)(=O)Cc1cnc([N+](=O)[O-])n1C [TH-1108] | 15 | 11 | – | – | – | – | – | –
Cc1cc(OS(=O)(=O)Cc2ccoc2[N+](=O)[O-])ccc1N(CCCl)CCCl [TH-1117] | 2.3 | 1.1 | – | – | – | – | – | –
Cc1cc(CS(=O)(=O)Oc2ccc(N(CCCl)CCCl)c(C)c2)c([N+](=O)[O-])s1 [TH-1131] | 1 | 0.3 | – | – | – | – | – | –
Cc1cc(C(C)(C)S(=O)(=O)Oc2ccc(N(CCCl)CCCl)c(C)c2)c([N+](=O)[O-])s1 [TH-1132] | 2 | 0.3 | – | – | – | – | – | –
